From US8227240B2, “Systems for screening pharmaceutical chemicals” (The Washington University, priority 2001, dated 2012)
Like-named read-outs stand apart in the source and are kept apart here.

Legend:
[1] = system: rat embryo fibroblast derived cell line (REF52); assay: Force response of ring samples to physiological activators without stretching; type: cell-based; settings: each drug added to a single tissue ring
Experimental: Ring samples made using a rat embryo fibroblast derived cell line (REF52) were prepared as described previously herein. The length of the tissue was maintained at a constant level during the test. Each of the drugs indicated in FIG. 15 was added to a single tissue ring.

[2] = system: rat adult cardiac fibroblasts (RACFs); assay: Contractile response of ring samples to agonists, RACFs; type: cell-based
Text: (§1) Profiles of contractile response to different agonists applied to ring samples were made using chicken embryo cardiac fibroblasts (CECFs) and rat adult cardiac fibroblasts (RACFs) and are shown in FIGS. 16(a)-(d) and FIGS. 16(e)-(h), respectively.
(§2) Time dependent force profiles after addition of FBS (20% v/v) were different depending on the pretreatment by different agonists.

[3] = system: chicken embryo cardiac fibroblasts (CECFs); assay: Contractile response of ring samples to agonists, CECFs; type: cell-based
Text: as §1, §2

NIH 3T3 cells = assay: Stress relaxation of tension in connective tissue models; type: cell-based; settings: different amounts
Experimental: The connective tissue models made using NIH 3T3 cells were treated with different amounts of the candidate pharmaceutical, Y27632, a Rho kinase specific inhibitor, which has been tested for reducing tension of smooth muscle strips such as rabbit aortic rings (Nature 239 (1997) 990-993). It is one of the promising drug candidates for treating hypertension in the future. Depending on the agonists used to stimulate the tissue contraction, the degree of reduction in tension is different (FIG. 21). […] Thus, the methods are useful for screening pharmaceutical candidates.

chicken cardiac cells = assay: Force response of regular and miniaturized cardiac tissue models; type: cell-based; settings: regular and miniaturized tissues, after calf serum
Experimental: The sample sizes are determined by the diameters of the mandrels and inner diameters of the wells. […] Miniaturized samples made using chick cardiac cells show twitch responses. Therefore this system can be used to test the effects of pharmaceutical candidates treating cardiac dysfunctions (Insert in FIG. 9b)

myosin ATPase = assay: Inhibition of contractile force activated by 20% FBS in ring sample; type: cell-based; settings: after prior addition of 20% FBS; 2, 4, 20, and 40 μM BDM
Experimental: In a related experiment, FBS was added to activate the contractile force and then a myosin ATPase inhibitor was added.

[4] = system: bio-artificial tissues (extracellular matrix, cellular contractility); assay: Tissue indentation device: mechanical changes in ECM, EA and pre-tension (Example 17); type: cell-based
Experimental: To verify the sensitivity for detecting changes in the mechanical properties of extracellular matrix (ECM) by the device, different concentrations of collagenase (1, 10, 100 U/ml) were administered to the different sets of bio-artificial tissues at time indicated by the arrow (b) in FIG. 33. All the bio-artificial tissues were treated with Endothelin-1 (50 nM, arrow a) to make sure the cells were responding to a contractile stimuli.
Experimental groups are separated into control (no treatment, filled circle), and treatments with 1, 10, 100 U/ml collagenase indicated by open circle, open triangle, and open square, respectively. After addition of 1 U/ml collagenase, the pre-tension, i.e. cellular contractility, was maintained compared to that of untreated control. […] While the collagenase digested the collagen matrix and affected ECM stiffness, the cell-ECM connection was slowly disrupted. Therefore, the cellular contractility was decreased especially with higher concentrations of collagenase. Nevertheless, the dataset indicated the measurement system sensitively detected incremental changes in ECM mechanics depending on the level of collagen degradation by the increasing concentrations of collagenase. At the 20 min time point (10 min after collagenase treatment), the apparent reduction of EA, but not pre-tension, indicates the EA was more sensitive to treatments affecting the extracellular matrix.

[5] = system: smooth muscle cells (SMCs) isolated from rat aorta; assay: Tissue indentation device: acute time-dependent cell force (Example 18); type: cell-based; settings: measured at 0, 1, 4 and 7 min; 50 nM Norepinephrine, 100 nM Endothelin, 10% FBS (FIG. 34)
Experimental: To test the system's ability to measure acute time-dependent response after treating the ETs, vasoconstrictors, norepinephrine and endothelin-1 and general constricting agent, fetal bovine serum (FBS) were added to bio-artificial tissues with smooth muscle cells (SMCs) isolated from rat aorta (10^6 SMCs per ml of bio-artificial tissue solution at bio-artificial tissue formation). The force generated by these bio-artificial tissues was measured at 0, 1, 4 and 7 min after adding the agents. […] The total acquisition time for 64 data points was 40 minutes.

[6] = system: chicken embryo fibroblasts (CEF's) tissue model; assay: Ring system: isometric force and dynamic stiffness of fibroblast populated matrices (FPM); type: cell-based; settings: for IC50: serial additions, sigmoidal dependence
Experimental: Chicken embryo fibroblasts (CEF's) isolated from 11-day chicken embryos (Spafas Inc., Preston, Conn.) were maintained in Dulbecco's modified Eagle's medium (DMEM) supplemented with 10% fetal calf serum (FCS), penicillin at 50 units/ml, and streptomycin at 50 microgram/milliliter. The CEF's used to make tissue models were passaged once or twice from primary cultures. Monomeric collagen solubilized in 0.02 M acetic acid (Upstate Biotechnology Inc., Lake Placid, N.Y.) was neutralized at 4° C. with 0.1 N NaOH and mixed with concentrated DMEM stock to yield a final normal DMEM concentration. The fibroblasts suspended by trypsin (FIG. 1a) were mixed with the collagen solution (FIG. 1b), the cell suspension was poured into Teflon casting wells (FIG. 1c), and the wells were incubated at 37° C. with 5% CO2 (FIG. 1d). The collagen polymerized within 15-30 min and fibroblasts were captured within the hydrated collagen gel. The collagen gel formed a ring (3 mm thick, 3 cm diameter) between the inner wall of the cylindrical well and the central mandrel. While in culture the cells compressed this ring, reducing its volume about 10-fold (thickness 200-300 μm). The ring could then be removed from the mandrel (FIG. 1e and FIG. 1f) and mounted on the measuring instrument (FIG. 1g) as described below.
Mechanical measurements were carried out using a ring system. After two days of incubation (serum starvation for the final 12-16 hours), the mandrel was removed from the casting well and the tissue model-ring was removed gently from the mandrel. As shown in FIG. 1 the tissue model-ring was looped over the triangular hook connected to an isometric force transducer (Model 52-9545, Harvard Apparatus, South Natick, Mass.) by a fine, flexible gold chain. The ring was also looped over a horizontal bar connected to a sliding element moveable vertically and linearly by a stepper motor (P/N 1-19-3400 24V DC 1.8° step size, Haward Industry, St. Louis, Mo.) controlled by a micro-stepping driver (IM483 Intelligent Motion Systems) to measure stress and dynamic modulus of the sample. The micro-stepping driver was controlled by a personal computer with software which enabled the stepper motor to achieve smooth motion. An analog-to-digital signal converter (CIO-DAS1602/16, Computer Boards, Inc., Mansfield, Mass.) attached to the computer translated the voltage signal from the isometric force transducer to a digital signal for recording on a data recorder. The stepper motor controlled the stretching of the tissue. Force exerted by or on the tissue was transmitted to the force transducer by the gold chain.
The tissue sample was submerged in 50 ml Hepes-buffered DMEM (pH 7.4) in a thermo-regulated organ bath (Harvard Apparatus, South Natick, Mass.) maintained at 37° C. The two horizontal bars over which the ring was looped were initially set to hold the ring at its original contour length (corresponding to the circumference of the mandrel).
Typically, for stiffness measurements, the tissue model is subjected to a sequence of stretch cycles. In each cycle the tissue model is slowly stretched from 0 to 20% over 30 minutes and the tissue model is then returned at the same rate to its original length by actuation of the stepper motor. The resulting increase in contractile force during the first stretch is substantially larger than the contractile force in subsequent stretches (FIG. 2a). For each stretch after the first stretch there is a further small decrease in maximum contractile force, but the decrease becomes negligible after sufficient pre-stretching. The tissue models produced contractile force in response to the activation of fibroblasts by serum. This contractile force was abolished by disrupting the actin cytoskeleton with cytochalasin D (2 μM) (FIG. 2b).
The amplitude of the force response divided by the stretching amplitude corresponded to the dynamic stiffness of the sample subjected to a preselected sinusoidal length change. […]

ring tissue model = assay: Contractile force developed by ring sample during tissue development (matrix remodeling and compression); type: cell-based
Experimental: The contractile force developed by the ring sample during matrix remodeling and compression can be measured by connecting the ring to the force measuring apparatus as described above within about 1-2 hours after collagen gelation. The cells begin to exert a force on the matrix after this time. Then the increase of force during tissue development (remodeling and compression) is observed over time.
Maximum force is typically reached within 15 to 20 hours. This process was also disrupted by several inhibitors as illustrated in FIGS. 18(b)-(d).

Molecule: lysophosphatidic acid [LPA]
- force response of tissue ring at constant length [1]: produce different forces

Molecule: NC(=O)CC[C@@H]1NC(=O)[C@H](Cc2ccccc2)NC(=O)[C@H](Cc2ccc(O)cc2)NC(=O)[C@@H](N)CSSC[C@@H](C(=O)N2CCC[C@H]2C(=O)N[C@@H](CCCN=C(N)N)C(=O)NCC(N)=O)NC(=O)[C@H](CC(N)=O)NC1=O [vasopressin]
- contractile response of ring [2]: responded
- force response of tissue ring at constant length [1]: produce different forces
- contractile response of ring [3]: did not response

Molecule: C[C@@H](N)[C@H]1CC[C@H](C(=O)Nc2ccncc2)CC1 [Y27632]
- tension of connective tissue models (NIH 3T3 cells): reduces the tension
- force of cardiac tissue models (chicken cardiac cells): decreased

Molecule: CC(=O)C(C)=NO [BDM, butane dione monoxime]
- fully activated contractile force (myosin ATPase): reduced, in a dose dependent manner

Molecule: CC[C@H](C)[C@H](NC(=O)[C@H](CC(=O)O)NC(=O)[C@H](CC(C)C)NC(=O)[C@H](Cc1c[nH]cn1)NC(=O)[C@@H]1CSSC[C@H](N)C(=O)N[C@@H](CO)C(=O)N[C@H]2CSSC[C@H](NC(=O)[C@H](CCC(=O)O)NC(=O)[C@H](CCCCN)NC(=O)[C@H](CC(=O)O)NC(=O)[C@H](CCSC)NC(=O)[C@H](CC(C)C)NC(=O)[C@H](CO)NC(=O)[C@H](CO)NC2=O)C(=O)N[C@@H](C(C)C)C(=O)N[C@@H](Cc2ccc(O)cc2)C(=O)N[C@@H](Cc2ccccc2)C(=O)N1)C(=O)N[C@H](C(=O)N[C@@H](Cc1c[nH]c2ccccc12)C(=O)O)[C@@H](C)CC [endothelin, endothelin-1]
- pre-tension (cellular contractility) ([4]; Endothelin-1 50 nM): increased immediately
- contractile response of ring [2]: contracted rings
- force response of tissue ring at constant length [1]: produce different forces
- cell force (active force) after adding the agent [5]: increased over time
- time at which cell force reached its maximum value [5]: 7 min
- contractile response of ring [3]: contracted rings

Molecule: C/C1=C/C(=O)O[C@@H]2C[C@@H](CC[C@H](C)/C=C\CC1)O[C@@](O)([C@@H]1CSC(=O)N1)C2 [LA-B, Latrunculin B]
- concentration at which force and dynamic stiffness reached their minimum values [6]: ~600 nM
- concentration range over which tension and stiffness decrease [6]: single decade
- lowest concentration at which force and dynamic stiffness were significantly diminished [6]: 40 nM
- effect on viscosity of the tissues (phase angle δ) ([6]; data not shown): relatively minor effect
- IC50 ([6]; read-out: estimated half maximum concentration for reducing the force): 53 nM
- IC50 ([6]; read-out: estimated half maximum concentration for reducing the stiffness): 68 nM

Molecule: Thrombin
- force response of tissue ring at constant length [1]: produce different forces

Molecule: CNC[C@H](O)c1cccc(O)c1 [phenylephrine]
- force response of tissue ring at constant length [1]: reduced the initial base line force

Molecule: NC[C@H](O)c1ccc(O)c(O)c1 [Norepinephrine, norepinephrine]
- force response of tissue ring at constant length [1]: reduced the initial base line force
- cell force (active force) after adding the agent [5]: increased over time
- time at which cell force reached its maximum value [5]: 7 min

Molecule: collagenase
- pre-tension (cellular contractility) compared to untreated control ([4]; 1 U/ml collagenase, after Endothelin-1 50 nM): maintained
- EA (tissue stiffness) ([4]; 1 U/ml collagenase, about 10 min after treatment): began to be reduced
- pre-tension (cellular contractility) ([4]; 10 U/ml collagenase, for ~10 min): didn't reduce the pre-tension significantly
- drop of EA (tissue stiffness) ([4]; 100 U/ml collagenase, ~10 min after treatment): already significant

Molecule: CCO [ethanol]
- force and stiffness of tissue models (tissue models; 10% solution of ethanol): reduces force and stiffness of tissue models significantly
- level of baseline force maintained by the viable cells (tissue models; different dose of ethanol): decrease

Molecule: EGF: epidermal growth factor (NSDSECPLSHDGYCLHDGVCMYIEALDKYACNCVVGYIGERCQYRDLKWWELR; Epidermal growth factor; UniProt P01133 971-1023, looked up)
- contractile response of ring [3]: did not respond to any dose

Molecule: CO[C@H]1[C@@H](OC)C[C@H](C)[C@@H](OC)C2=CC(=O)C=C(NC(=O)/C(C)=C/C=C\[C@H](OC)[C@@H](OC(N)=O)/C(C)=C/[C@@H]1C)C2=O [herbimycin A]
- maximum force during ring tissue development (ring tissue model): reduces the maximum force

Molecule: COC(=O)Nc1nc2ccc(C(=O)c3cccs3)cc2[nH]1 [nocodazole]
- maximum force during ring tissue development (ring tissue model): reduces the maximum force

Molecule: angiotensin II (DRVYIHPF; Angiotensin-2; UniProt P01019 25-32, looked up) [agonist]
- contractile response of ring [2]: responded
- contractile response of ring [3]: did not response
